# Results: patent US9000048B2, “Fluoropolymer-based emulsions for the intravenous delivery of fluorinated volatile anesthetics” (Wisconsin Alumni Research Foundation, priority 2006, dated 2015)
# What was measured:
# [1] = in vivo; cited from earlier work
# [2] = Emulsion droplet sizing and stability by dynamic light scattering and visual phase separation; format: physicochemical
# Procedure: The emulsions were sized by dynamic light scattering prior to use. For these measurements, the emulsions were mixed by inversion of the centrifuge tube to eliminate inhomogeneity due to either flocculation or sedimentation. The emulsions were then diluted by a factor of 300 by adding 10 μL of the emulsion to 2.990 mL of 0.9% NaCl. Sizing was done by dynamic light scattering (NICOMP 380 ZLS, Particle Sizing Systems, Santa Barbara, Calif.) with a 639 nm laser at a scattering angle of 90°. Each sample was run for 15 min and all numbers are reported as Gaussian volume weighted. The emulsions were only used if the average diameter was less than 350 nm. This cutoff was established to ensure consistent physical characteristics of the emulsion and to prevent acute toxicity that can develop with increased particle size.^15 Additionally, the emulsion was filtered through a 0.45 μm nylon syringe filter. The final nano-emulsions are milky-white.
# As a typical example, sevoflurane (Abbott Labs, N. Chicago, Ill., 3.4 mL) and perfluorooctyl bromide (SynQuest Laboratories, Inc., Alachua, Fla., 1.7 mL) were added to an aqueous 0.9% NaCl solution (11.9 mL) of F13M5 (298 mg, 25 mg/mL), for a total volume of 17 mL. The two-phase mixture was homogenized with a low energy mixer (Power Gen 500, Fisher Scientific, Hampton, N.H.) for 1 min at 21000 rpm at room temperature. The crude emulsion was further homogenized under high pressure (5000 psi, 1 min) using a Microfluidizer (model 110 S, Microfluidics Corp., Newton, Mass.) with the temperature maintained at 20.0° C. with a cooling bath. The product emulsions were stored in 15 mL sterile centrifuge tubes (Corning Inc., Corning, N.Y.) at 4° C. until use. All emulsions were prepared in this same manner with the requisite percentages of each component as necessary. Intralipid emulsions were prepared by adding sevoflurane to Intralipid (20%, Fresenius Kabi, Uppsala, Sweden) and then homogenizing and microfluidizing as above. […]
# [3] = Solubility of perfluorotridecane in sevoflurane; format: physicochemical; conditions: organic solvent or mixture, read-out: maximum solubility of perfluorotridecane in sevoflurane
# Source text: If intercalation of perfluorotridecane between the perfluorocarbon blocks of F13M5 is the reason that phase separation occurred with sevoflurane, the same effect might be expected to happen when perfluorotridecane is used as an additive to stabilize emulsions of either FC-72 and perfluorooctyl bromide. […] The difference in emulsion stability is likely due to the different solubility of perfluorotridecane in the three fluorinated compounds. […] It is likely that the limited solubility of perfluorotridecane in sevoflurane led to its preferential adsorption at the interface, rather than at the center of the droplet. The greater solubility of perfluorotridecane in the other solvents allowed it to more easily reside in the center of the droplet and act truly as a secondary oil additive.
# [4] = in vivo; cited from earlier work; remark: listed apart in the source
# [5] = cited from earlier work
# [6] = cited from earlier work; remark: listed apart in the source
compound,measurement,setting,value
FC(F)(F)C(F)(F)C(F)(F)C(F)(F)/C=C/C(F)(F)C(F)(F)C(F)(F)C(F)(F)F [bis-perfluorobutyl ethylene],circulatory half-time / half life in the body,[1],7 days
FC1(F)C(F)(F)C(F)(F)C2(F)C(F)(F)C(F)(F)C(F)(F)C(F)(F)C2(F)C1(F)F (centres unmarked) [perfluorodecalin],ripening with different stabilizing additives,[2],ripen similarly
FC(F)(Cl)C(F)(F)C(F)(F)C(F)(F)C(F)(F)C(F)(F)C(F)(F)C(F)(F)Cl [perfluorodichlorooctane],circulatory half-time / half life in the body,[1],7 days
FC(F)(F)C(F)(F)C(F)(F)C(F)(F)C(F)(F)C(F)(F)C(F)(F)C(F)(F)Br [perfluorooctyl bromide],ripening with different stabilizing additives,[2],ripen similarly
same,droplet size / Ostwald ripening with perfluorotridecane as the additive,"[2]; 20% v/v primary oil, perfluorotridecane additive, 1.5% w/v F13M5",the size stabilized and Ostwald ripening appeared to be stopped
same,circulatory half-time / half life in the body,[1],four
FC(F)(F)C(F)(F)C(F)(F)C(F)(F)C(F)(F)C(F)(F)C(F)(F)C(F)(F)C(F)(F)C(F)(F)C(F)(F)C(F)(F)C(F)(F)F [perfluorotridecane],solubility,[3],78 mg/mL
CC(C)c1cccc(C(C)C)c1O [propofol],"therapeutic index, previously published values",[4],3.1
FCOC(C(F)(F)F)C(F)(F)F [sevoflurane],water solubility,[5],6 mM
same,maximum solubility of sevoflurane in 30% Intralipid,"[6]; 30% Intralipid, gas equilibration",3.46 % v/v
same,maximum amount of sevoflurane that can be stably emulsified in Intralipid,[6]; Intralipid,3.5 % v/v
same,maximum of sevoflurane emulsified in Intralipid,"[6]; in volume, non-fluorinated lipids (Intralipid)",3.6%
CCCC(C)C1(CC)C(=O)NC(=S)NC1=O (centres unmarked) [thiopental],"therapeutic index, previously published values",[4],2.2
perfluoro(methyldecalin),circulatory half-time / half life in the body,[1],11 days
